The structures appear in SMILES notation.

This assay addresses T1, full length SGK1 (Homo sapiens, UniProt O00141).
T1 construct: 125 μM full length SGK1 (Life Technologies Part #PR7358A); purchased Life Technologies PR7358A
T1 sequence (O00141 1-431): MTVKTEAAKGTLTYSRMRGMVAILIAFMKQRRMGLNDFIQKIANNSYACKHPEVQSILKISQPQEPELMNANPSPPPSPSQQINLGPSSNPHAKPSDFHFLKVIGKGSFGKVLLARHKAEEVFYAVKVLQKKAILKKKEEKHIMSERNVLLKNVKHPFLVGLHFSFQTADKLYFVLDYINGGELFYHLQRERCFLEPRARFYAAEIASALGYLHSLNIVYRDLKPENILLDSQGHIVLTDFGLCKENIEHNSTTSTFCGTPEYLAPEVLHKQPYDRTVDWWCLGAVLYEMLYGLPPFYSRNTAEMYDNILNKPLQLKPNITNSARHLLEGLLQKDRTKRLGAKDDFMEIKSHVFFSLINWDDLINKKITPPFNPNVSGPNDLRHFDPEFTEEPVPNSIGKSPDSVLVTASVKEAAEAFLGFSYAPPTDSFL
Put plainly: SGK1 inhibition Assay A (Caliper LabChip electrophoretic separation of fluorescent peptide substrate and phosphorylated product). To be noted: Assay A; 20 μM ATP, 40 min incubation; read-out: SGK1 IC50. In kind it is biochemical.

As to `Nc1ncnn2c(-c3ccnc(C(F)F)c3)cc(N3CCC[C@@H](NC(=O)c4sc(Cl)cc4OCCN4CCC(F)(F)C4)C3)c12` [Example 294, (R)-N-(1-(4-amino-7-(2-(difluoromethyl)pyridin-4-yl)pyrrolo[2,1-f][1,2,4]triazin-5-yl)piperidin-3-yl)-5-chloro-3-(2-(3,3-difluoropyrrolidin-1-yl)ethoxy)thiophene-2-carboxamide], the IC50 (commonly the point on the concentration scale where inhibition reaches its midpoint) was 0.007 µM. Consider `CC1CN(CCOc2cc(Cl)sc2C(=O)N[C@@H]2CCCN(c3cc(-c4ccnc(C(F)F)c4)n4ncnc(N)c34)C2)CCO1` (stereo partly drawn) [Example 295, N-((R)-1-(4-amino-7-(2-(difluoromethyl)pyridin-4-yl)pyrrolo[2,1-f][1,2,4]triazin-5-yl)piperidin-3-yl)-5-chloro-3-(2-(2-methylmorpholino)ethoxy) thiophene-2-carboxamide], for which the IC50 is 0.007 µM. With `C[C@@H]1CN(CCOc2cc(Cl)sc2C(=O)N[C@@H]2CCCN(c3cc(-c4ccnc(C(F)F)c4)n4ncnc(N)c34)C2)C[C@H](C)O1` [Example 296, N-((R)-1-(4-amino-7-(2-(difluoromethyl)pyridin-4-yl)pyrrolo[2,1-f][1,2,4]triazin-5-yl)piperidin-3-yl)-5-chloro-3-(2-((25,6R)-2,6-dimethylmorpholino)ethoxy)thiophone-2-carboxamide] the figure was 0.012 µM. Take `Nc1ncnn2c(-c3ccnc(C(F)F)c3)cc(N3CCC[C@@H](NC(=O)c4sc(Cl)cc4OCCN4CC(F)(F)C4)C3)c12` [Example 297]: the IC50 stood at 0.019 µM.

`CC(=O)N1CC=C(c2cc(N3CCC[C@@H](NC(=O)c4sc(Cl)cc4OCCN4CCNCC4)C3)c3c(N)ncnn23)C1` [Example 298, (R)-N-(1-(7-(1-acetyl-2,5-dihydro-1H-pyrrol-3-yl)-4-aminopyrrolo[2,1-f][1,2,4]triazin-5-yl)piperidin-3-yl)-5-chloro-3-(2-(piperazin-1-yl)ethoxy)thiophene-2-carboxamide]: the IC50 is 0.014 µM. Consider `CC(=O)N1CC=C(c2cc(N3CCC[C@@H](NC(=O)c4sc(Cl)cc4OCCN4CCC(C)(O)CC4)C3)c3c(N)ncnn23)C1` [Example 299, (R)-N-(1-(7-(1-acetyl-2,5-dihydro-1H-pyrrol-3-yl)-4-aminopyrrolo[2,1-f][1,2,4]triazin-5-yl)piperidin-3-yl)-5-chloro-3-(2-(4-hydroxy-4-methylpiperidin-1-yl)ethoxy)thiophene-2-carboxamide], for which the IC50 stood at 0.007 µM. With `CC(=O)N1CC=C(c2cc(N3CCC[C@@H](NC(=O)c4sc(Cl)cc4OCCN4CCC(C)(N)CC4)C3)c3c(N)ncnn23)C1` [Example 300, (R)-N-(1-(7-(1-acetyl-2,5-dihydro-1H-pyrrol-3-yl)-4-aminopyrrolo[2,1-f][1,2,4]triazin-5-yl)piperidin-3-yl)-3-(2-(4-amino-4-methylpiperidin-1-yl)ethoxy)-5-chlorothiophene-2-carboxamide], the IC50 came to 0.001 µM. On to `CC(=O)N1CC=C(c2cc(N3CCC[C@@H](NC(=O)c4sc(Cl)cc4OCCNCC(F)F)C3)c3c(N)ncnn23)C1` [Example 301, (R)-N-(1-(7-(1-acetyl-2,5-dihydro-1H-pyrrol-3-yl)-4-aminopyrrolo[2,1-f][1,2,4]triazin-5-yl)piperidin-3-yl)-5-chloro-3-(2-((2,2-difluoroethyl)amino)ethoxy)thiophene-2-carboxamide], for which the IC50 was 0.014 µM. With `CN(C)CCOc1cc(C(F)F)sc1C(=O)N[C@@H]1CCCN(c2cc(-c3ccc(C(N)=O)c(F)c3)n3ncnc(N)c23)C1` [Example 302, (R)—N-(1-(4-amino-7-(4-carbamoyl-3-fluorophenyl)pyrrolo[2,1-f][1,2,4]triazin-5-yl)piperidin-3-yl)-5-(difluoromethyl)-3-(2-(dimethylamino)ethoxy)thiophene-2-carboxamide] the figure was 0.004 µM; with `COC(=O)N1CC=C(c2cc(N3CCC[C@@H](NC(=O)c4sc(C(F)F)cc4OCCN(C)C)C3)c3c(N)ncnn23)C1` [Example 303, Methyl (R)-3-(4-amino-5-(3-(5-(difluoromethyl)-3-(2-(dimethylamino)ethoxy)thiophene-2-carboxamido)piperidin-1 - yl)pyrrolo [2,1-f][1,2,4]triazin-7-yl)-2,5-dihydro-1H-pyrrole-1-carboxylate], 0.01 µM; with `CN(C)CCOc1cc(C(F)F)sc1C(=O)N[C@@H]1CCCN(c2cc(-c3ccnc(N)c3)n3ncnc(N)c23)C1` [Example 304, (R)-N-(1-(4-amino-7-(2-aminopyridin-4-yl)pyrrolo [2,1-f][1,2,4]triazin-5-yl)piperidin-3-yl)-5-(difluoromethyl)-3-(2-(dimethylamino)ethoxy) thiophene-2-carboxamide], 0.003 µM.

For the molecule `CC(=O)N1CC=C(c2cc(N3CCC[C@@H](NC(=O)c4sc(C(F)F)cc4OCCN(C)C)C3)c3c(N)ncnn23)C1` [Example 305, (R)-N-(1-(7-(1-acetyl-2,5-dihydro-1H-pyrrol-3-yl)-4-aminopyrrolo[2,1-f][1,2,4]triazin-5-yl)piperidin-3-yl)-5-(difluoromethyl)-3-(2-(dimethylamino)ethoxy)thiophene-2-carboxamide], the IC50 is 0.015 µM.

Take `CN(C)CCOc1cc(C(F)F)sc1C(=O)N[C@@H]1CCCN(c2cc(-c3ccc(C(N)=O)nc3)n3ncnc(N)c23)C1` [Example 306, (R)-5-(4-amino-5-(3-(5-(difluoromethyl)-3-(2-(dimethylamino)ethoxy)thiophene-2-carboxamido)piperidin-1-yl)pyrrolo[2,1-f] [1,2,4]triazin-7-yl)picolinamide]: the IC50 came to 0.011 µM.

With `CN(C)CCOc1cc(C(F)F)sc1C(=O)N[C@@H]1CCCN(c2cc(-c3cncnc3)n3ncnc(N)c23)C1` [Example 307, (R)-N-(1-(4-amino-7-(pyrimidin-5-yl)pyrrolo[2,1-f] [1,2,4]triazin-5-yl)piperidin-3-yl)-5-(difluoromethyl)-3-(2-(dimethylamino)ethoxy)thiophene-2-carboxamide], the IC50 turned out to be 0.027 µM. With `CN(C)CCOc1cc(C(F)F)sc1C(=O)N[C@@H]1CCCN(c2cc(-c3ccc(C=O)cc3)n3ncnc(N)c23)C1` [Example 308, (R)-N-(1-(4-amino-7-(4-formylphenyl)pyrrolo[2,1-f][1,2,4]triazin-5-yl)piperidin-3-yl)-5-(difluoromethyl)-3-(2-(dimethylamino)ethoxy)thiophene-2-carboxamide] the figure was 0.001 µM; with `CN(C)CCOc1cc(C(F)F)sc1C(=O)N[C@@H]1CCCN(c2cc(-c3ccc(=O)n(CC(F)F)c3)n3ncnc(N)c23)C1` [Example 309, (R)-N-(1-(4-amino-7-(1-(2,2-difluoroethyl)-6-oxo-1,6-dihydropyridin-3-yl)pyrrolo[2,1-f][1,2,4]triazin-5-yl)piperidin-3-yl)-5-(difluoromethyl)-3-(2-(dimethylamino)ethoxy)thiophene-2-carboxamide], 0.017 µM. As to `CN(C)CCOc1cc(C(F)F)sc1C(=O)N[C@@H]1CCCN(c2cc(-c3ccc(C#N)nc3)n3ncnc(N)c23)C1` [Example 310, (R)-N-(1-(4-amino-7-(6-cyanopyridin-3-yl)pyrrolo[2,1-f] [1,2,4]triazin-5-yl)piperidin-3-yl)-5-(difluoromethyl)-3-(2-(dimethylamino)ethoxy)thiophene-2-carboxamide], the IC50 is 0.003 µM. With `Cc1cc(-c2cc(N3CCC[C@@H](NC(=O)c4sc(C(F)F)cc4OCCN(C)C)C3)c3c(N)ncnn23)cc(C(F)F)n1` [Example 312, (R)-N-(1-(4-amino-7-(2-(difluoromethyl)-6-methylpyridin-4-yl)pyrrolo[2,1-f] [1,2,4]triazin-5-yl)piperidin-3-yl)-5-(difluoromethyl)-3-(2-(dimethylamino)ethoxy)thiophene-2-carboxamide], the IC50 was 0.032 µM. To `CN(C)CCOc1cc(C(F)F)sc1C(=O)N[C@@H]1CCCN(c2cc(-c3ccc(C#N)c(F)c3)n3ncnc(N)c23)C1` [Example 313] belongs 0.004 µM; to `Nc1ncnn2c(-c3cncnc3)cc(N3CCC[C@@H](NC(=O)c4sc(C(F)F)cc4N4CC5(COC5)C4)C3)c12` [Example 314, (R)—N-(1-(4-amino-7-(pyrimidin-5-yl)pyrrolo[2,1-f][1,2,4]triazin-5-yl)piperidin-3-yl)-5-(difluoromethyl)-3-(2-oxa-6-azaspiro[3.3]heptan-6-yl)thiophene-2-carboxamide], 0.374 µM; to `CC(=O)N1CC=C(c2cc(N3CCC[C@@H](NC(=O)c4sc(C(F)F)cc4N4CC5(COC5)C4)C3)c3c(N)ncnn23)C1` [Example 315, (R)-N-(1-(7-(1-acetyl-2,5-dihydro-1H-pyrrol-3-yl)-4-aminopyrrolo[2,1-f][1,2,4]triazin-5-yl)piperidin-3-yl)-5-(difluoromethyl)-3-(2-oxa-6-azaspiro[3.3]heptan-6-yl)thiophene-2-carboxamide], 0.065 µM. To `Nc1ncnn2c(-c3ccc(=O)n(CC(F)F)c3)cc(N3CCC[C@@H](NC(=O)c4sc(C(F)F)cc4N4CC5(COC5)C4)C3)c12` [Example 316, (R)-N-(1-(4-amino-7-(1-(2,2-difluoroethyl)-6-oxo-1,6-dihydropyridin-3-yl)pyrrolo[2,1-f][1,2,4]triazin-5-yl)piperidin-3-yl)-5-(difluoromethyl)-3-(2-oxa-6-azaspiro[3.3]heptan-6-yl)thiophene-2-carboxamide] belongs 0.031 µM.

The values are drawn from patent US20260250290A1 (BRISTOL-MYERS SQUIBB COMPANY, priority 2023, published 2026).
